Literature values in publication PMC9516332 (Frontiers in Oncology, 2022).
Where two headings read alike, the source gives them in different places.

Experiments:
Conditions in all cases: cited from earlier work
[1] = target: panel of 255 wild-type kinases (Homo sapiens, UniProt O96013)
[2] = target: panel of 255 wild-type kinases (Homo sapiens, UniProt P57059)
[3] = target: T1, panel of 255 wild-type kinases (Homo sapiens, UniProt Q02156)
T1 sequence (Q02156 1-737): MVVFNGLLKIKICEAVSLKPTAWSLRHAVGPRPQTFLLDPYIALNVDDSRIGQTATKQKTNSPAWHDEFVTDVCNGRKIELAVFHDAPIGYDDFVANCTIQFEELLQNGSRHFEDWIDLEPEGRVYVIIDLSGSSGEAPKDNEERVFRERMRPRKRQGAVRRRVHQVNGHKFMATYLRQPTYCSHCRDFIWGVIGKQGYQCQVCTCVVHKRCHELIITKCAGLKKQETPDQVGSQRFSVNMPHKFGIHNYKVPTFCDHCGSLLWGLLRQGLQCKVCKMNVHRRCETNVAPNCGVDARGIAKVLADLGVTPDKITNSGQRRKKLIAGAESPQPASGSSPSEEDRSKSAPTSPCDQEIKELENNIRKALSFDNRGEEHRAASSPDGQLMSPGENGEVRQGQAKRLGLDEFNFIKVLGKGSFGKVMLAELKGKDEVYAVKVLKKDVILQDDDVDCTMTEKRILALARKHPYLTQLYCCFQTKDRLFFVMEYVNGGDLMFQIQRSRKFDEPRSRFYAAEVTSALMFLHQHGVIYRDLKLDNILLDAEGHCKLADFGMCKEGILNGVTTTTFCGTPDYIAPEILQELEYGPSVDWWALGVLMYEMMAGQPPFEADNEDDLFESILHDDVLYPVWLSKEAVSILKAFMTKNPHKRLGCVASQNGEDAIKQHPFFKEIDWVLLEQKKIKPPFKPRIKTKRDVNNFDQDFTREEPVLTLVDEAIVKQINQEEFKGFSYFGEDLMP

[4] = target: panel of 255 wild-type kinases (Homo sapiens, UniProt Q9NQU5)
[5] = target: T2, panel of 255 wild-type kinases (Homo sapiens, UniProt Q9UQB9)
T2 sequence (Q9UQB9 1-309): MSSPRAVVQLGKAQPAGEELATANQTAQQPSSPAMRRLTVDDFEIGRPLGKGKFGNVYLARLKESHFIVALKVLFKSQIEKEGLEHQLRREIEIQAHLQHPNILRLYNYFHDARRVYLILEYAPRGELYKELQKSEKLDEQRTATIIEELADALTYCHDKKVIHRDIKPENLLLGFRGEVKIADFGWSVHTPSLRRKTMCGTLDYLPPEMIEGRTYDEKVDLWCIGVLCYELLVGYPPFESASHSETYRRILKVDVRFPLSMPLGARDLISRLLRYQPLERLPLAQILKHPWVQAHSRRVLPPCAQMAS

[6] = target: panel of 255 wild-type kinases (Homo sapiens, UniProt O14578)
[7] = target: panel of 255 wild-type kinases (Homo sapiens, UniProt Q13164)
[8] = target: panel of 255 wild-type kinases (Homo sapiens, UniProt P17948)
[9] = target: panel of 255 wild-type kinases (Homo sapiens, UniProt P51957)
[10] = target: T3, panel of 255 wild-type kinases (Homo sapiens, UniProt O15530)
T3 sequence (O15530 1-556): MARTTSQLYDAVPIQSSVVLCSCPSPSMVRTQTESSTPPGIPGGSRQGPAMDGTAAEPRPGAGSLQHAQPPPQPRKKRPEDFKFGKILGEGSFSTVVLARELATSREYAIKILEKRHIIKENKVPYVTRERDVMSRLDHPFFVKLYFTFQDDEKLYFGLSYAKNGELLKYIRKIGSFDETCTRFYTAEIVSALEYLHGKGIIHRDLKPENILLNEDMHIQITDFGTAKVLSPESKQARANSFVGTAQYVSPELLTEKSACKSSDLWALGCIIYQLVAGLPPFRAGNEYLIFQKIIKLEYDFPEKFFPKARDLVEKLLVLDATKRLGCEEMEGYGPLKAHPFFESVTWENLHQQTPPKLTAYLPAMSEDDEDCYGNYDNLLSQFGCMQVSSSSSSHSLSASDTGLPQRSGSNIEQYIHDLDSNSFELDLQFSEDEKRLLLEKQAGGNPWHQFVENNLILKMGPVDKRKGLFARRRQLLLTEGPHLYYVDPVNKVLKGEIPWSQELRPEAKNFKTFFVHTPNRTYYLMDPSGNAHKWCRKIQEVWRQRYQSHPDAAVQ

[11] = target: panel of 255 wild-type kinases (Homo sapiens, UniProt O75582)

COc1cc(N2CCC(N3CCN(C)CC3)CC2)ccc1Nc1ncc(Cl)c(Nc2ccccc2P(C)(C)=O)n1 [brigatinib]
%-inhibition, PAK4 [1]: 45% | %-inhibition at 1 µmol/L, SIK [2]: 99% | %-inhibition at 1 µmol/L, PKCε [3]: 39% | %-inhibition, PAK6 [4]: 26% | %-inhibition AurC [5]: 44% | %-inhibition at 1 µmol/L, CRIK [6]: 3.33% | %-inhibition at 1 µmol/L, Erk5 [7]: 96% | %-inhibition at 1 µmol/L, FLT1 [8]: 74% | %-inhibition, NEK4 [9]: 25% | %-inhibition at 1 µmol/L, PDK1 [10]: 4.31% | %-inhibition, MSK1 [11]: 23%

C=CC(=O)N1CCC[C@@H](n2nc(-c3ccc(Oc4ccccc4)cc3)c3c(N)ncnc32)C1 [ibrutinib]
%-inhibition, PAK4 ([1]; PAK4, 1 µmol/L single concentration, ref DOI: 10.1158/1535-7163.MCT-18-0877): 11% | %-inhibition at 1 µmol/L, SIK ([2]; kinase SIK, 1 µmol/L single concentration, ref DOI: 10.1158/1535-7163.MCT-18-0877): 8% | %-inhibition at 1 µmol/L, PKCε ([3]; kinase PKCε, 1 µmol/L single concentration, ref DOI: 10.1158/1535-7163.MCT-18-0877): 8% | %-inhibition, PAK6 ([4]; PAK6, 1 µmol/L single concentration, ref DOI: 10.1158/1535-7163.MCT-18-0877): 9% | %-inhibition AurC ([5]; AurC kinase assay, 1 µmol/L single concentration, ref DOI: 10.1158/1535-7163.MCT-18-0877): 7% | %-inhibition at 1 µmol/L, CRIK ([6]; kinase CRIK, 1 µmol/L single concentration, ref DOI: 10.1158/1535-7163.MCT-18-0877): -0.165% | %-inhibition at 1 µmol/L, Erk5 ([7]; kinase Erk5, 1 µmol/L single concentration, ref DOI: 10.1158/1535-7163.MCT-18-0877): 4% | %-inhibition at 1 µmol/L, FLT1 ([8]; kinase FLT1, 1 µmol/L single concentration, ref DOI: 10.1158/1535-7163.MCT-18-0877): 73% | %-inhibition, NEK4 ([9]; NEK4, 1 µmol/L single concentration, ref DOI: 10.1158/1535-7163.MCT-18-0877): 4.65% | %-inhibition at 1 µmol/L, PDK1 ([10]; kinase PDK1, 1 µmol/L single concentration, ref DOI: 10.1158/1535-7163.MCT-18-0877): -2% | %-inhibition, MSK1 ([11]; MSK1, 1 µmol/L single concentration, ref DOI: 10.1158/1535-7163.MCT-18-0877): -1.18%

C[C@@H](Oc1cc(-c2cnn(C3CCNCC3)c2)cnc1N)c1c(Cl)ccc(F)c1Cl [crizotinib]
%-inhibition, PAK4 ([1]; PAK4, 1 µmol/L single concentration, ref DOI: 10.1371/journal.pone.0092146): -5.56% | %-inhibition at 1 µmol/L, SIK ([2]; kinase SIK, 1 µmol/L single concentration, ref DOI: 10.1371/journal.pone.0092146): 26% | %-inhibition at 1 µmol/L, PKCε ([3]; kinase PKCε, 1 µmol/L single concentration, ref DOI: 10.1371/journal.pone.0092146): -7% | %-inhibition, PAK6 ([4]; PAK6, 1 µmol/L single concentration, ref DOI: 10.1371/journal.pone.0092146): 3% | %-inhibition AurC ([5]; AurC kinase assay, 1 µmol/L single concentration, ref DOI: 10.1371/journal.pone.0092146): 87% | %-inhibition at 1 µmol/L, CRIK ([6]; kinase CRIK, 1 µmol/L single concentration, ref DOI: 10.1371/journal.pone.0092146): -12% | %-inhibition at 1 µmol/L, Erk5 ([7]; kinase Erk5, 1 µmol/L single concentration, ref DOI: 10.1371/journal.pone.0092146): 45% | %-inhibition at 1 µmol/L, FLT1 ([8]; kinase FLT1, 1 µmol/L single concentration, ref DOI: 10.1371/journal.pone.0092146): 53% | %-inhibition, NEK4 ([9]; NEK4, 1 µmol/L single concentration, ref DOI: 10.1371/journal.pone.0092146): 4.57% | %-inhibition at 1 µmol/L, PDK1 ([10]; kinase PDK1, 1 µmol/L single concentration, ref DOI: 10.1371/journal.pone.0092146): -5% | %-inhibition, MSK1 [11]: -0.641%
